The target in series [1] is T1, dopamine-β-hydroxylase (DBH) (Bos taurus, UniProt P15101).
T1 sequence (P15101 1-610): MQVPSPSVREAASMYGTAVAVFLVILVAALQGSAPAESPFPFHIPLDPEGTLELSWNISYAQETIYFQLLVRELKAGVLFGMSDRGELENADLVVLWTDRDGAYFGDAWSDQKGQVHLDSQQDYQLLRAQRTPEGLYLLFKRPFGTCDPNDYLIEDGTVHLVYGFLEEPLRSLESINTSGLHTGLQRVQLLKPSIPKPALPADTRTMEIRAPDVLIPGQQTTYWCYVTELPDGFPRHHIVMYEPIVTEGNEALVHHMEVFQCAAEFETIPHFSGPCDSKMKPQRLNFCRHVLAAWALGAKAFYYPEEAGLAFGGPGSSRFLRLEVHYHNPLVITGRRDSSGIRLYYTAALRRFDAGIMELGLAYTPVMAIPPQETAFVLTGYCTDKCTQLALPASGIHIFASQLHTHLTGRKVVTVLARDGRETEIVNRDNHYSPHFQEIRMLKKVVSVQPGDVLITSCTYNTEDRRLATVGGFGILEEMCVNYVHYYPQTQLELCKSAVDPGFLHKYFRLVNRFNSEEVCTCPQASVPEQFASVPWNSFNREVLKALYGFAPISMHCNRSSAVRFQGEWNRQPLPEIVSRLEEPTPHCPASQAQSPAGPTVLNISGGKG
The series can be described thus: biochemical. The conditions noted are these: in vitro; tyramine to octopamine; absorbance at 330 nm; read-out: IC50 (molar concentration of compound at which DBH activity was halved). The method, then: Octopamine was assayed following sodium periodate oxidation to p-hydroxybenzaldehyde by measuring spectrophotometric absorbance at 330 nm. […] Melting points (mp) are given in °C.

Series [2] concerns spontaneously hypertensive rats. Put plainly: in vivo activity in spontaneously hypertensive rats: electrolyte excretion, urine volume, systolic blood pressure, heart rate. Also on record: species or system rats (Okamoto-Aoki strain spontaneously hypertensive). The conditions noted are these: for Heart Rate 1st dose / Systolic Blood Pressure 1st dose: after 1st dose; for Heart Rate 1st dose / Systolic Blood Pressure 1st dose / Heart Rate 2nd dose / Systolic Blood Pressure 2nd dose: tail-cuff; for Heart Rate 2nd dose / Systolic Blood Pressure 2nd dose: two hours after 2nd dose; for Electrolytes Excreted K^+ / Electrolytes Excreted Na^+ / Urine Volume: urine collected for three hours. The text has this:
The following procedure was used to test, for in vivo activity, compounds which can be used to inhibit DBH activity in mammals, including certain illustrative compounds of the invention. The compounds wherein R is --CO2 H or --CH2 NHC6 H5, X is --H, Y is --H and n is 1 are not compounds of the invention but can be used in the method of the invention.
Male, Okamoto-Aoki strain spontaneously hypertensive rats, aged 16-20 weeks, were used for testing. The afternoon before testing, the animals were fasted and the following morning the first dose of the test compound was administered, p.o., along with a 25 ml/kg load of normal saline. The animals were then placed in metabolism cages, three per cage, and urine was collected for three hours and subsequently analyzed for sodium, potassium, and creatinine. Indirect systolic blood pressure and heart rate were measured via a tail-cuff method and the animals received an identical second does of the test compound. Two hours after the second dose, the systolic blood pressure and heart rate were again determined. Drugs were administered as a solution or suspension in normal saline with 0.02% ascorbic acid.
Three rats weighing 270-320 g were used. Each received two intraperitoneal injections, in a 24 hour period, of a dose volume of 5 mL and a dose concentration of 50 mg/kg or 25 mg/kg, in 0.9% NaCl, following a 24 hour pretreatment dose. Averaged results with control animals, three per experiment, are reported in parentheses below results of test animals.

Series [3] deals with DBH. Particulars: treated patients; Friedman et al.; significance uncertain; cited from earlier work.
The test system of series [4] is DBH. The conditions noted are these: cited from earlier work; for mode of DBH inhibition / DBH inhibition: result in words.
For series [5] the following is noted: result in words; Teresawa et al.; cited from earlier work.
The conditions of series [6]: at certain concentrations; Ehrreich et al.; cited from earlier work.
The conditions of series [7]: result in words; cited from earlier work.

Structures can show the parent of a compound that is named as a salt.

Take `O=C(O)c1nccn1CCCc1ccc(O)cc1` [R = CO2 H.1/2 H2 O, Y = OH, X = H, n = 3, 1-[3-(4-hydroxyphenyl)propyl]imidazole-2-carboxylic acid, hemihydrate]: the IC50 in series [1] was determined as 70 µM. In addition, in series [2] (dose = 25 mg/kg), the “Na^+ /K^+ ratio” value was 1.313, the “Heart Rate 1st dose” value is listed as 400 beats/min, the “Systolic Blood Pressure 1st dose” value stood at 176 mmHg and the “Heart Rate 2nd dose” value is on record as 440 beats/min. In addition, in series [2] (dose = 25 mg/kg), the “Systolic Blood Pressure 2nd dose” value is recorded as 173 mmHg, the “Electrolytes Excreted K^+” value worked out at 152.18 μEq/rat, the “Electrolytes Excreted Na^+” value turned out to be 199.74 μEq/rat and the “Urine Volume” value came out at 6 ml/rat. The “in vivo activity as diuretic” value in series [2] (result in words) was “significant diuretic activity”.
For `CC(N)(Cc1ccc(O)c(O)c1)C(=O)O` (stereo not drawn) [alpha-methyl-DOPA], the DBH levels entry in the series with DBH [3] is reported as “lowered DBH levels”.
Turning to `Br.Br.Oc1ccc(Cn2ccnc2CNc2ccccc2)cc1` [1-(4-hydroxybenzyl)-2-phenylaminomethyl imidazole dihydrobromide], in series [1], the IC50 was over 100 µM. In series [2] (dose = 50 mg/kg), the “Na^+ /K^+ ratio” value was 2.927, the “Heart Rate 1st dose” value was found to be 440 beats/min, the “Systolic Blood Pressure 1st dose” value is recorded as 181 mmHg and the “Heart Rate 2nd dose” value worked out at 480 beats/min. Moreover, in series [2] (dose = 50 mg/kg), the “Systolic Blood Pressure 2nd dose” value is 175 mmHg, the “Electrolytes Excreted K^+” value came to 74.27 μEq/rat, the “Electrolytes Excreted Na^+” value is 217.36 μEq/rat and the “Urine Volume” value was determined as 3 ml/rat. In addition, in series [2] (result in words), the “in vivo activity as cardiotonic” value was “significant cardiotonic activity”.
As for `COc1ccc(CCCn2ccnc2C(=O)O)cc1` [R = CO2 H.HCl, Y = OCH3, X = H, n = 3, 1-[3-(4-methoxyphenyl)propyl]imidazole-2-carboxylic acid hydrochloride], the IC50 in series [1] is 95 µM.
Same read-out and setting: the same measure for `COc1ccc(Cn2ccnc2C(=O)O)cc1` [R = CO2 H.HCl, Y = OCH3, X = H, n = 1, 1-(4-methoxybenzyl)imidazole-2-carboxylic acid hydrochloride]: 75 µM.
With `NOCc1ccccc1` [Benzyloxyamine, benzyloxyamine], the “mode of DBH inhibition” value in the series on DBH [4] is recorded as “apparently act as competitive inhibitors”.
Consider `CCCCc1ccc(C(=O)O)nc1` [Fusaric acid], for which the hepatotoxicity result in series [5] is “hepatotoxic”.
`NCCc1ccc(O)c(O)c1` [DA, dopamine]: the vasodilator activity entry in series [6] is “selective vasodilator activity at certain concentrations”.
In the case of `O=C(O)c1ccc(CCC(Br)CBr)cn1` (centres unmarked) [5-(3,4-dibromo)butyl picolinic acid], the DBH inhibition entry in the series on DBH [4] is “DBH inhibitors”.
On to `O=C(O)c1ccc(Cc2ccc(O)cc2)cn1` [phenopicolinic acid], for which the “DBH inhibitory activity relative to fusaric acid” value in the series on DBH [4] (Runti et al.) is “twice the inhibitory activity of fusaric acid”. In addition, in the series on DBH [4], the DBH inhibition entry is recorded as “can inhibit DBH”.
As for `NNCc1ccccc1` [benzylhydrazine], the “mode of DBH inhibition” value with DBH [4] is given as “apparently act as competitive inhibitors”.
As to `Br.Br.NCc1nccn1Cc1ccc(O)cc1` [R = CH2 NH2.2HBr, Y = OH, X = H, n = 1, 1-(4-hydroxybenzyl)-2-aminomethyl imidazole dihydrobromide], in series [1], the IC50 came out at 35 µM. For the same molecule, in series [2] (dose = 25 mg/kg), the “Na^+ /K^+ ratio” value worked out at 2.159, the “Heart Rate 1st dose” value came out at 420 beats/min, the “Systolic Blood Pressure 1st dose” value came to 161 mmHg and the “Heart Rate 2nd dose” value was determined as 440 beats/min. In addition, in series [2] (dose = 25 mg/kg), the “Systolic Blood Pressure 2nd dose” value is on record as 158 mmHg, the “Electrolytes Excreted K^+” value was 103.42 μEq/rat, the “Electrolytes Excreted Na^+” value amounted to 223.24 μEq/rat and the “Urine Volume” value turned out to be 3 ml/rat. In addition, the “in vivo activity as antihypertensive” value in series [2] (result in words) was “significant antihypertensive activity”.
With `COC(=O)[C@H]1[C@H]2C[C@@H]3c4[nH]c5cc(OC)ccc5c4CCN3C[C@H]2C[C@@H](OC(=O)c2cc(OC)c(OC)c(OC)c2)[C@@H]1OC` [reserpine], the DBH levels entry with DBH [3] was “lowered DBH levels”.
On to `CCCCc1ccc(C(N)=O)nc1` [Bupicomide, 5-(n-butyl)picolinamide], for which the DBH inhibition entry with DBH [4] was “DBH inhibitor”. The antihypertensive activity result in series [7] is “antihypertensive activity”.
Consider `CN(C)C(=S)SCc1ccc(C(=O)O)nc1` [5-(dimethyldithiocarbamoyl)methyl picolinic acid], for which, in the series on DBH [4], the DBH inhibition result was “DBH inhibitors”.
As for `c1ccc(CNCc2nccn2Cc2ccccc2)cc1` [1-benzyl-2-benzylaminomethyl imidazole dihydrochloride], the IC50 in series [1] was determined as 100 µM.
Regarding `O=C(O)c1nccn1Cc1ccccc1` [R = CO2 H.HCl, Y = H, X = H, n = 1], the IC50 in series [1] amounted to 11 µM. Besides, in series [2] (dose = 50 mg/kg), the “Na^+ /K^+ ratio” value is given as 1.270, the “Heart Rate 1st dose” value was 440 beats/min, the “Systolic Blood Pressure 1st dose” value is on record as 211 mmHg and the “Heart Rate 2nd dose” value was found to be 480 beats/min. For the same molecule, in series [2] (dose = 50 mg/kg), the “Systolic Blood Pressure 2nd dose” value stood at 185 mmHg, the “Electrolytes Excreted K^+” value was 214.52 μEq/rat, the “Electrolytes Excreted Na^+” value was 272.54 μEq/rat and the “Urine Volume” value worked out at 15 ml/rat. For the same molecule, in series [2] (result in words), the “in vivo activity as antihypertensive” value is “significant in vivo activity”, the “in vivo activity as cardiotonic” value is “significant in vivo activity”, the “in vivo activity as diuretic” value is listed as “significant in vivo activity” and the “in vivo activity as natriuretic” value was “significant in vivo activity”.
On to `O=C(O)c1ccc(CCCCCl)cn1` [5-(4-chlorobutyl)picolinic acid], for which, in the series on DBH [4], the DBH inhibition result is listed as “can inhibit DBH”.
`CC(C)NCC(O)COc1cccc2ccccc12` (racemic) [propanolanol]: the DBH levels entry with DBH [3] is recorded as “not”.
For the molecule `NCc1nccn1Cc1ccccc1` [R = CH2 NH2.2HCl, Y = H, X = H, n = 1, 1-benzyl-2-aminomethyl imidazole dihydrochloride], the IC50 in series [1] is 240 µM.
For `O=C(O)c1nccn1Cc1ccc(O)cc1` [R = CO2 H.HCl, Y = OH, X = H, n = 1, hydrochloride hydrate], the IC50 in series [1] turned out to be 90 µM.

Values taken from patent US4863944A, “Dopamine-β-hydroxylase inhibitors” (SmithKline Beckman Corporation, priority 1988, dated 1989).
